{"source": "patent EP0637237B1", "about": "“CALCIUM RECEPTOR-ACTIVE MOLECULES” (BRIGHAM AND WOMEN'S HOSPITAL, INC., priority 1993, dated 1994)", "key": {"C-cell Ca^2+ receptor": {"target": "T1, C-cell Ca^2+ receptor (Rattus norvegicus, UniProt P48442)", "T1 sequence (P48442 20-1079)": "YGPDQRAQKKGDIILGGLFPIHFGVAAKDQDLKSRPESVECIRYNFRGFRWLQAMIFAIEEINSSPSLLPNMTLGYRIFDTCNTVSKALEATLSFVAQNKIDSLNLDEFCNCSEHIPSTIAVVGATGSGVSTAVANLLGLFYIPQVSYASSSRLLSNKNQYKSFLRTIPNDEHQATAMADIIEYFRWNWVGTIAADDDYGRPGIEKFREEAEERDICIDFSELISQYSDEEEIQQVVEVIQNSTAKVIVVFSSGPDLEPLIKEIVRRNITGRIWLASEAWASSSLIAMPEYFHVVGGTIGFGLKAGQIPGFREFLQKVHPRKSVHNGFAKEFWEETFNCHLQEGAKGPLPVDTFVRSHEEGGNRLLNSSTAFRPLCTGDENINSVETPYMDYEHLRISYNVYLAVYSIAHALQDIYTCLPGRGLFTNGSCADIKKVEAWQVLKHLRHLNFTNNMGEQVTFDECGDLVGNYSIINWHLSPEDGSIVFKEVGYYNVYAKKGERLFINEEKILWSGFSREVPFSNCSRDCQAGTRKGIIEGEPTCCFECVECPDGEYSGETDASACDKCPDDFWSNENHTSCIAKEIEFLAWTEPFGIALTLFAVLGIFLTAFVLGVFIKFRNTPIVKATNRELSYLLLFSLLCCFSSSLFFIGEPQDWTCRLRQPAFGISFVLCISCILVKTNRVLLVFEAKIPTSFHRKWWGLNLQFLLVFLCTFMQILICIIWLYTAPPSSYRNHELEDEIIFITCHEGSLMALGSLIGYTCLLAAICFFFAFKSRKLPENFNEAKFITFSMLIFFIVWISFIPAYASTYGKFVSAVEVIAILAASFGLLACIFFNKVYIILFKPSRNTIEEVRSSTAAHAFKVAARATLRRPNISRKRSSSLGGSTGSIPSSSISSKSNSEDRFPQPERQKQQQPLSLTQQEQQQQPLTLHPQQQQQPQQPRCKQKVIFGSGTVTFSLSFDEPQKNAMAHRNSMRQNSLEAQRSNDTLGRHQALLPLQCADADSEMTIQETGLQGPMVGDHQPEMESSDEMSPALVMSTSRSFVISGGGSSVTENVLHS", "format": "cell-based", "conditions": "spermine 10 mM, neomycin B 5 mM"}, "human parathyroid cells": {"test_system": "human parathyroid cells", "test": "PTH secretion from human parathyroid cells", "format": "cell-based", "conditions": "at concentrations that caused mobilization of intracellular Ca2+, Fig. 13"}}, "data": [{"smiles": "NC[C@@H]1O[C@H](O[C@H]2[C@@H](O)[C@H](O[C@@H]3[C@@H](O)[C@H](N)C[C@H](N)[C@H]3O[C@H]3O[C@H](CN)[C@@H](O)[C@H](O)[C@H]3N)O[C@@H]2CO)[C@H](N)[C@@H](O)[C@@H]1O", "note": "[neomycin B]", "values": [{"measurement": "effect on basal [Ca2+]i", "setting": "C-cell Ca^2+ receptor", "result": "without effect on basal [Ca^2+]i"}, {"measurement": "inhibition of PTH secretion", "setting": "human parathyroid cells", "result": "inhibited PTH secretion from human parathyroid cells"}]}]}
